Data published in ChEMBL document CHEMBL5316299, “Discovery of Novel Drug-like PHGDH Inhibitors to Disrupt Serine Biosynthesis for Cancer Therapy” (J Med Chem, 2023).

T1: D-3-phosphoglycerate dehydrogenase (Homo sapiens, UniProt O43175)
T1 sequence (O43175 whole entry): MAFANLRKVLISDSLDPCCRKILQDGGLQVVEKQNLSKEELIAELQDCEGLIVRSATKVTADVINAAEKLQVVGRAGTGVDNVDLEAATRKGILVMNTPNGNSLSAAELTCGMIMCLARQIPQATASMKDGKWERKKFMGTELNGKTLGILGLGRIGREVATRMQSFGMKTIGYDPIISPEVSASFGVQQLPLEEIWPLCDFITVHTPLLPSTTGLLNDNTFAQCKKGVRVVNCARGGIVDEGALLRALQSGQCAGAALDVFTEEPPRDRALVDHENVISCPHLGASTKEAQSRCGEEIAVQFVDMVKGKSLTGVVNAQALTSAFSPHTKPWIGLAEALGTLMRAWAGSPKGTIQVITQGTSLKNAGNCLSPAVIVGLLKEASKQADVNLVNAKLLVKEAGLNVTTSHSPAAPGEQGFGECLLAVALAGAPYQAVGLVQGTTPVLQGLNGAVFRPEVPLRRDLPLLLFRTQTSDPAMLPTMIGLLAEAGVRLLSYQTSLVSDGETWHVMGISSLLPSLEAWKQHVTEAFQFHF

B1: D-3-phosphoglycerate dehydrogenase (Homo sapiens), O43175 (protein)
chain: MAFANLRKVLISDSLDPCCRKILQDGGLQVVEKQNLSKEELIAELQDCEGLIVRSATKVTADVINAAEKLQVVGRAGTGVDNVDLEAATRKGILVMNTPNGNSLSAAELTCGMIMCLARQIPQATASMKDGKWERKKFMGTELNGKTLGILGLGRIGREVATRMQSFGMKTIGYDPIISPEVSASFGVQQLPLEEIWPLCDFITVHTPLLPSTTGLLNDNTFAQCKKGVRVVNCARGGIVDEGALLRALQSGQCAGAALDVFTEEPPRDRALVDHENVISCPHLGASTKEAQSRCGEEIAVQFVDMVKGKSLTGVVNAQALTSAFSPHTKPWIGLAEALGTLMRAWAGSPKGTIQVITQGTSLKNAGNCLSPAVIVGLLKEASKQADVNLVNAKLLVKEAGLNVTTSHSPAAPGEQGFGECLLAVALAGAPYQAVGLVQGTTPVLQGLNGAVFRPEVPLRRDLPLLLFRTQTSDPAMLPTMIGLLAEAGVRLLSYQTSLVSDGETWHVMGISSLLPSLEAWKQHVTEAFQFHF

Tests used:
[1] = target: T1, D-3-phosphoglycerate dehydrogenase; assay: Inhibition of PHGDH (unknown origin) preincubated for 30 mins followed by substrate addition and measured after 5 mins
MDA-MB-468 = assay: Antiproliferative activity against human MDA-MB-468 cells expressing PHGDH assessed as reduction in cell viability measured for 72 hrs by CCK-8 assay; format: functional, cell-based; conditions: MDA-MB-468, 72 h
MCF-10A = assay: Antiproliferative activity against human MCF-10A cells assessed as reduction in cell viability measured for 72 hrs by CCK-8 assay; format: functional, cell-based
[2] = Microsomal stability in human liver microsomes assessed as half life measured upto 60 mins by HPLC-MS/MS analysis; format: ADME, Microsome
[3] = Microsomal stability in rat liver microsomes assessed as half life measured upto 60 mins by HPLC-MS/MS analysis; format: ADME, Microsome
[4] = Microsomal stability in mouse liver microsomes assessed as half life measured upto 60 mins by HPLC-MS/MS analysis; format: ADME, Microsome
[5] = Microsomal stability in human liver microsomes assessed as intrinsic clearance measured upto 60 mins by HPLC-MS/MS analysis; format: ADME, Microsome; conditions: 1 h
[6] = Microsomal stability in rat liver microsomes assessed as intrinsic clearance measured upto 60 mins by HPLC-MS/MS analysis; format: ADME, Microsome; conditions: 1 h
[7] = Microsomal stability in mouse liver microsomes assessed as intrinsic clearance measured upto 60 mins by HPLC-MS/MS analysis; format: ADME, Microsome; conditions: 1 h
[8] = target: T1, D-3-phosphoglycerate dehydrogenase; assay: Inhibition of wild type PHGDH (unknown origin) preincubated for 30 mins followed by substrate addition and measured after 5 mins
[9] = target: D-3-phosphoglycerate dehydrogenase (Homo sapiens, UniProt O43175, D175A); assay: Inhibition of PHGDH D175A mutant (unknown origin) preincubated for 30 mins followed by substrate addition and measured after 5 mins
Sequence of D-3-phosphoglycerate dehydrogenase (Homo sapiens, UniProt O43175, D175A) (O43175 2-533 D175A limits assumed): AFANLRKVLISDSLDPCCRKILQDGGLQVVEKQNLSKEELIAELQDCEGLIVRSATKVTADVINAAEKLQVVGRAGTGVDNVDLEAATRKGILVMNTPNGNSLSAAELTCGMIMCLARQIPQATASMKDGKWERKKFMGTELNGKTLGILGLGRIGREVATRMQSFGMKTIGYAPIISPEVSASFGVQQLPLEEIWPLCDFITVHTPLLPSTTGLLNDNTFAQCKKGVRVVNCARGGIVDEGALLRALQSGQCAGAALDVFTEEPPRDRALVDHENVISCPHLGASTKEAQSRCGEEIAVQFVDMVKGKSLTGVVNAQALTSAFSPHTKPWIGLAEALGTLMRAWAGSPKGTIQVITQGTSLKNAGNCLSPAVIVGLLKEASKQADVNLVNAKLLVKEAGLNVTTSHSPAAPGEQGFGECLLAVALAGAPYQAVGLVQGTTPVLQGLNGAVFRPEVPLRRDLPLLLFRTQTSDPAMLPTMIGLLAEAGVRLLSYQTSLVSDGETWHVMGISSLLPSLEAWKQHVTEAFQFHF

BT-20 = assay: Antiproliferative activity against human BT-20 cells expressing PHGDH assessed as reduction in cell viability measured for 72 hrs by CCK-8 assay; format: functional, cell-based; conditions: BT-20, 72 h
PC-9 = assay: Antiproliferative activity against human PC-9 cells expressing PHGDH assessed as reduction in cell viability measured for 72 hrs by CCK-8 assay; format: functional, cell-based; conditions: PC-9, 72 h
NCI-H1975 = assay: Antiproliferative activity against human NCI-H1975 cells expressing PHGDH assessed as reduction in cell viability measured for 72 hrs by CCK-8 assay; format: functional, cell-based; conditions: NCI-H1975, 72 h
HCT-116 = assay: Antiproliferative activity against human HCT-116 cells expressing PHGDH assessed as reduction in cell viability measured for 72 hrs by CCK-8 assay; format: functional, cell-based; conditions: HCT-116, 72 h
HCC827 = assay: Antiproliferative activity against human HCC827 cells expressing PHGDH assessed as reduction in cell viability measured for 72 hrs by CCK-8 assay; format: functional, cell-based; conditions: HCC827, 72 h
[10] = substrate: CC(=O)c1cccc(NS(=O)(=O)c2ccc(C(=O)Nc3nc(-c4cccc(F)c4)cs3)cc2)c1; conditions: Homo sapiens; dose 25.0 µM, time 35.0 min
[11] = substrate: CC(=O)c1cccc(NS(=O)(=O)c2ccc(C(=O)Nc3nc(-c4cccc(F)c4)cs3)cc2)c1; conditions: Homo sapiens; dose 12.5 µM, time 35.0 min
[12] = substrate: CC(=O)c1cccc(NS(=O)(=O)c2ccc(C(=O)Nc3nc(-c4cccc(F)c4)cs3)cc2)c1; conditions: Homo sapiens; dose 6.3 µM, time 35.0 min
[13] = substrate: CC(=O)c1cccc(NS(=O)(=O)c2ccc(C(=O)Nc3nc(-c4cccc(F)c4)cs3)cc2)c1; conditions: Homo sapiens; dose 3.1 µM, time 35.0 min
[14] = substrate: CC(=O)c1cccc(NS(=O)(=O)c2ccc(C(=O)Nc3nc(-c4cccc(F)c4)cs3)cc2)c1; conditions: Homo sapiens; dose 25.0 µM, time 35.0 min; remark: listed apart in the source
[15] = substrate: CC(=O)c1cccc(NS(=O)(=O)c2ccc(C(=O)Nc3nc(-c4cccc(F)c4)cs3)cc2)c1; conditions: Homo sapiens; dose 12.5 µM, time 35.0 min; remark: listed apart in the source
[16] = substrate: CC(=O)c1cccc(NS(=O)(=O)c2ccc(C(=O)Nc3nc(-c4cccc(F)c4)cs3)cc2)c1; conditions: Homo sapiens; dose 6.3 µM, time 35.0 min; remark: listed apart in the source

Row | Molecule | IC50 [1] | IC50 (MDA-MB-468) | IC50 (MCF-10A) | other results
1 | O=C(O)Cc1cccc(NS(=O)(=O)c2ccc(C(=O)Nc3nc(-c4ccccc4)cs3)cc2)c1 | 7.89 µM | > 100 µM | > 100 µM | –
2 | CNC(=O)c1cccc(NS(=O)(=O)c2ccc(C(=O)Nc3nc(-c4ccccc4)cs3)cc2)c1 | 4.96 µM | 15 µM | > 100 µM | –
3 | COCCNS(=O)(=O)c1ccc(C(=O)Nc2nc(-c3ccccc3)cs2)cc1 | 17.8 µM | – | – | –
4 | CN1CCN(c2cccc(NS(=O)(=O)c3ccc(C(=O)Nc4nc(-c5ccccc5)cs4)cc3)c2)CC1 | 6.16 µM | 9.7 µM | 25.5 µM | –
5 | CC(=O)c1cccc(NS(=O)(=O)c2ccc(C(=O)Nc3nc(-c4cccc(C)c4)cs3)cc2)c1 | 2.4 µM | 3 µM | 100 µM | half-life [2]: 1 min; half-life [3]: 0.9 min; half-life [4]: 2.5 min; CLH [5]: 1589.7 mL/min/g; CLH [6]: 2378.4 mL/min/g; CLH [7]: 835.6 mL/min/g
6 | O=C(Nc1nc(-c2ccccc2)cs1)c1ccc(S(=O)(=O)Nc2ccccc2)cc1 | 6.5 µM | 11.6 µM | > 100 µM | –
7 | COc1cccc(-c2csc(NC(=O)c3ccc(S(=O)(=O)Nc4cccc(C(C)=O)c4)cc3)n2)c1 | 4.8 µM | 4.8 µM | 100 µM | half-life [2]: 0.85 min; half-life [3]: 0.84 min; half-life [4]: 0.85 min; CLH [5]: 2485.8 mL/min/g; CLH [6]: 2500.2 mL/min/g; CLH [7]: 2471.9 mL/min/g
8 | Cc1cc(C)nc(NS(=O)(=O)c2ccc(C(=O)Nc3nc(-c4ccccc4)cs3)cc2)n1 | 3.19 µM | 30.1 µM | 86.5 µM | –
9 | COC(=O)CS(=O)(=O)c1ccc([C@@H](CO)NC(=O)c2cc3c(Cl)cc(C)cc3n2C)cc1 | 0.162 µM | 27.9 µM | > 100 µM | –
10 | CC(=O)c1cccc(NS(=O)(=O)c2ccc(C(=O)Nc3nc(-c4ccc(F)c(F)c4)cs3)cc2)c1 | 17.2 µM | – | – | –
11 | O=C(Nc1nc(-c2ccccc2)cs1)c1ccc(S(=O)(=O)O)cc1 | 12.6 µM | > 100 µM | – | –
12 | O=C(O)CNS(=O)(=O)c1ccc(C(=O)Nc2nc(-c3ccccc3)cs2)cc1 | 15.8 µM | – | – | –
13 | CC(=O)c1cccc(NS(=O)(=O)c2ccc(C(=O)Nc3nc(-c4ccccc4)cs3)cc2)c1 | 5.33 µM | 8.4 µM | > 100 µM | –
14 | CC(=O)c1cccc(NS(=O)(=O)c2ccc(C(=O)Nc3nc(-c4ccc(F)cc4)cs3)cc2)c1 | 2.6 µM | 11.7 µM | 100 µM | –
15 | CC(=O)c1cccc(NS(=O)(=O)c2ccc(C(=O)Nc3cc(-c4ccccc4)cs3)cc2)c1 | 12.9 µM | – | – | –
16 | O=C(Nc1nc(-c2ccccc2)cs1)c1ccc(S(=O)(=O)Nc2cccc(CO)c2)cc1 | 7.74 µM | 10.1 µM | > 100 µM | –
17 | CC(=O)c1cccc(NS(=O)(=O)c2ccc(C(=O)Nc3nc(-c4ccccc4F)cs3)cc2)c1 | 3.8 µM | 65.4 µM | 62.9 µM | –

Row | Molecule | IC50 [1] | IC50 (MDA-MB-468) | IC50 (MCF-10A) | other results
18 | O=C(Nc1nc(-c2ccccc2)cs1)c1ccc(S(=O)(=O)N2CCC(C(=O)O)CC2)cc1 | 13 µM | – | – | –
19 | CC(=O)N1CCC(NS(=O)(=O)c2ccc(C(=O)Nc3nc(-c4ccccc4)cs3)cc2)CC1 | 6.81 µM | 72.3 µM | > 100 µM | –
20 | O=C(O)c1cccc(NS(=O)(=O)c2ccc(C(=O)Nc3nc(-c4ccccc4)cs3)cc2)c1 | 3.59 µM | > 100 µM | > 100 µM | –
21 | O=C(Nc1nc(-c2ccccc2)cs1)c1ccc(S(=O)(=O)Nc2cccc(N3CCOCC3)c2)cc1 | 7.04 µM | > 100 µM | > 100 µM | –
22 | O=C(Nc1nc(-c2ccccc2)cs1)c1ccc(S(=O)(=O)NCCN2CCOCC2)cc1 | 10.8 µM | – | – | –
23 | CCOC(=O)c1sc(NC(=O)c2ccco2)c(SC#N)c1C | – | 20.9 µM | 57.2 µM | –
24 | Cc1cc(Cl)c2cc(C(=O)N[C@H](CO)c3ccc(S(=O)(=O)CC(=O)O)cc3)n(C)c2c1 | 0.106 µM | > 100 µM | > 100 µM | IC50 [8]: 0.1 µM; IC50 [9]: > 3 µM
25 | CN1CCN(CCNS(=O)(=O)c2ccc(C(=O)Nc3nc(-c4ccccc4)cs3)cc2)CC1 | 11.4 µM | – | – | –
26 | O=C(Nc1nc(-c2ccccc2)cs1)c1ccc(S(=O)(=O)Nc2cccc(CCO)c2)cc1 | 7.49 µM | 8.1 µM | 93.4 µM | –
27 | O=C(Nc1nc(-c2ccccc2)cs1)c1ccc(S(=O)(=O)Cl)cc1 | 18.5 µM | – | – | –
28 | COc1ccccc1-c1csc(NC(=O)c2ccc(S(=O)(=O)Nc3cccc(C(C)=O)c3)cc2)n1 | 2.2 µM | 5.5 µM | > 100 µM | half-life [2]: 26 min; half-life [3]: 2.5 min; half-life [4]: 13.7 min; CLH [5]: 82 mL/min/g; CLH [6]: 838.8 mL/min/g; CLH [7]: 153 mL/min/g
29 | CC(=O)c1cccc(NS(=O)(=O)c2ccc(C(=O)Nc3nc(-c4ccc(F)cc4F)cs3)cc2)c1 | 6.7 µM | – | – | –
30 | CN(C)CCNS(=O)(=O)c1ccc(C(=O)Nc2nc(-c3ccccc3)cs2)cc1 | 15.7 µM | – | – | –
31 | O=C(Nc1nc(-c2ccccc2)cs1)c1ccc(S(=O)(=O)N2CCC(CCO)CC2)cc1 | 12.2 µM | – | – | –
32 | CC(=O)c1cccc(NS(=O)(=O)c2ccc(C(=O)Nc3nc(-c4cccc(O)c4)cs3)cc2)c1 | – | 69.3 µM | – | IC50 (BT-20): 69.3 µM; IC50 (PC-9): > 100 µM; IC50 (NCI-H1975): 89.7 µM; IC50 (HCT-116): 84.7 µM; IC50 (HCC827): 55.7 µM
33 | B1 | – | – | – | Km [10]: 72.9 µM; Km [11]: 64 µM; Km [12]: 51.6 µM; Km [13]: 33.4 µM; Km [14]: 448 µM; Km [15]: 495 µM; Km [16]: 510 µM
